Measurements published in US20070219185A1, “Preventive or therapeutic agent for neuropathic pain” (priority 2004, published 2007).

Experiments:
[1] = system: STZ-induced diabetic rats; experiment: Nociceptive threshold in STZ-induced diabetic rats (single administration), Randall-Selitto method; format: in vivo, rat; details: for Nociceptive threshold before administration / Nociceptive threshold after administration: mean±SE; for Nociceptive threshold after administration: one hour after administration
Experimental: Measurement of the Nociceptive Threshold in STZ-Induced Diabetic Rats (Single Administration)
STZ (50 mg/kg) was administered intravenously to male SD stain rats to induce diabetes mellitus. Test articles were administered 14 days later (10 rats in each group). Test articles used were clonidine as the α2 AR stimulant, terbutaline as the β2 AR stimulant and the above-mentioned Compound 1. Normal and Control groups received the medium (0.5% methylcellulose). Before and one hour after administration of test articles, the nociceptive threshold against pressure stimulation given to the right hind-paw of rats was measured by Randall-Selitto method, and compared with that in Control group.

[2] = system: STZ-induced diabetic rats; experiment: Nociceptive threshold in STZ-induced diabetic rats (repeated administration), Randall-Selitto method; format: in vivo, rat; details: for Nociceptive threshold before administration / Nociceptive threshold after administration / nociceptive threshold following repeated administration for 14 days: Example 2; for Nociceptive threshold before administration / Nociceptive threshold after administration: 14 times, mean±SE; for Nociceptive threshold before administration: before the final administration; for Nociceptive threshold after administration: one hour after the final administration; for nociceptive threshold following repeated administration for 14 days: H group (clonidine 1.0 mg/kg subcutaneous; terbutaline 10 mg/kg oral), versus Control group; for nociceptive threshold after 14-day repeated, sole administration: Example 3, FIG. 1, L and M groups (clonidine 0.1, 0.3 mg/kg subcutaneous; terbutaline 1, 3 mg/kg oral)
Experimental: Measurement of the Nociceptive Threshold in STZ-Induced Diabetic Rats (Repeated Administration)
STZ (50 mg/kg) was administered intravenously to male SD stain rats to induce diabetes mellitus. […] Normal and Control groups received the medium (0.5% methylcellulose). Before the final administration (before administration of test articles) and after the final administration (one hour after the administration), the nociceptive threshold against pressure stimulation given to the right hind-paw of rats was measured by Randall-Selitto method, and compared with that in Control group.

[3] = target: T1, β2 AR (Rattus norvegicus, UniProt P10608); experiment: Receptor binding test of β2 AR; details: 3H-dihydroalprenolol; fascia of rat gravid uterus; read-out: binding affinity (IC50 value) to β2 AR
T1 construct: the fascia of gravid uterus (β2 AR) as the sources of receptors; from tissue; host or cells: rat gravid uterus (fascia/membrane specimen)
Experimental: Receptor Binding Tests of α2 AR and β2 AR
Receptor binding tests were conducted in ^3H-p-aminoclonidine and ^3H-dihydroalprenolol (3 rats in each) using specimens of the membrane of rat cerebral cortex (α2 AR) and the fascia of gravid uterus (β2 AR) as the sources of receptors. The binding ability of Compound 1 to α2 AR and β2 AR were obtained by calculating binding inhibition rates (IC50 values) of Compound 1 against the binding abilities of the above-mentioned tracers with both receptors.

[4] = system: Seltzer model rats; experiment: Nociceptive threshold in Seltzer model rats (single administration), Randall-Selitto method; format: in vivo, rat; details: Example 6, FIG. 3, 10 mg/kg oral, one hour after administration
Description: Measurement of the Nociceptive Threshold in Seltzer Model Rats (Single Administration)
Ten, 9-week old male SD rats were anesthetized with pentobarbital (Nembutal injection®), and the right sciatic nerve was exposed. In Nerve ligation group (7 rats), half of the dorsal portion of the nerve was ligated using 5-0 nylon thread. In Normal group (3 rats), the sciatic nerve was only exposed. Three weeks after the model was created, the control group received the medium (0.5% methylcellulose) and Nerve ligation group was given orally test articles. Before the administration (before administration of test articles) and after administration (one hour after the administration of test articles), the nociceptive threshold against pressure stimulation given to the right hind-paw of rats was measured by Randall-Selitto method. Results before and after administration were compared.

[5] = system: Seltzer model rats; experiment: Nociceptive threshold in Seltzer model rats (repeated administration), Randall-Selitto method; format: in vivo, rat; details: Example 7, FIG. 4; 10 mg/kg oral, 14-day repeated
Experimental: Measurement of the Nociceptive Threshold in Seltzer Model Rats (Repeated Administration)
Thirty, 7-week old male SD rats were anesthetized with pentobarbital (Nembutal injection®), and the right sciatic nerve was exposed. In the nerve ligation group (20 rats), half of the dorsal portion of the nerve was ligated using 6-0 silk thread. In the normal group (10 rats), the sciatic nerve was only exposed. Beginning the following day of the model creation, test articles were administered orally once a day, repeatedly, 14 times in total. Normal and Control groups received the medium (0.5% methyl-cellulose) and Nerve ligation group was given orally test articles. One hour after the final administration, the nociceptive threshold against pressure stimulation given to the right hind-paw of rats was measured by Randall-Selitto method, and compared with Control group.

[6] = Example 1, H group 1.0 mg/kg subcutaneous
[7] = Example 1, L group 0.1 mg/kg subcutaneous
[8] = H group 1.0 mg/kg subcutaneous once a day
[9] = L group 0.1 mg/kg subcutaneous once a day
[10] = M group 0.3 mg/kg subcutaneous once a day
[11] = Example 1, H group 10.0 mg/kg oral
[12] = Example 1, L group 1.0 mg/kg oral
[13] = H group 10.0 mg/kg oral once a day
[14] = L group 1.0 mg/kg oral once a day
[15] = M group 3.0 mg/kg oral once a day

T1 sequence (P10608 whole entry): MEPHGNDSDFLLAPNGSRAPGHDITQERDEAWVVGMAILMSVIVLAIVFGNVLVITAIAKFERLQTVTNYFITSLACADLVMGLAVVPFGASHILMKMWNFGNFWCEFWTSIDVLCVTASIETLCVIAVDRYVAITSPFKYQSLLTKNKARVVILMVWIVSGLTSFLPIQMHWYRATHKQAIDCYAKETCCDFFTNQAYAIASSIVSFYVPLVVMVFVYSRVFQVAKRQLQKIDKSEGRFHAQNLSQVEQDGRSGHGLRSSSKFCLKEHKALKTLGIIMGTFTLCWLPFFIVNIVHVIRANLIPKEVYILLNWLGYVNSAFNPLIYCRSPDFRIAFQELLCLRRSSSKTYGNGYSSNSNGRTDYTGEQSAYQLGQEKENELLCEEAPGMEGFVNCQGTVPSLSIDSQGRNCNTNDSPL

## Clc1cccc(Cl)c1N=C1NCCN1 [Clonidine, clonidine]
[1]; Example 1, H group 1.0 mg/kg subcutaneous, after administration
  analgesic effect compared with Control group: apparent analgesic effect
[1]; [6]
  Nociceptive threshold before administration: 115.4 ± 8.9 g
  Nociceptive threshold after administration: 325.8 ± 29.8 g
[1]; [7]
  Nociceptive threshold before administration: 122.8 ± 7.5 g
  Nociceptive threshold after administration: 155.8 ± 16.3 g
[2]; [8]
  Nociceptive threshold before administration: 97.2 ± 14.5 g
  Nociceptive threshold after administration: 254.4 ± 33.3 g
[2]
  nociceptive threshold following repeated administration for 14 days: increased significantly
  nociceptive threshold after 14-day repeated, sole administration: in neither L groups or M groups of either test articles, the nociceptive threshold increased
[2]; [9]
  Nociceptive threshold before administration: 129.2 ± 15.9 g
  Nociceptive threshold after administration: 180.6 ± 24.4 g
[2]; [10]
  Nociceptive threshold before administration: 104.2 ± 13.8 g
  Nociceptive threshold after administration: 115.2 ± 18.2 g

## CN(C)C(=O)COc1ccc2c(c1)C[C@@H](NC[C@H](O)c1ccc(O)c(CO)c1)CC2 [Compound 1, (-)-bis{2-[(2S)-2-[{(2R)-2-hydroxy-2-(4-hydroxy-3-hydroxymethyl-phenyl)ethyl}amino]-1,2,3,4-tetrahydronaphthalen-7-yloxy]-N,N-dimethylacetamide}sulfate dihydrate]
[3]
  IC50: 14 nM
[1]; Example 4, 0.3 mg/kg oral
  Nociceptive threshold before administration: 71.8 ± 5.3 g
  Nociceptive threshold after administration: 117.6 ± 10.7 g
[1]; Example 4, 1.0 mg/kg oral
  Nociceptive threshold before administration: 95.0 ± 5.1 g
  Nociceptive threshold after administration: 131.0 ± 12.3 g
[1]; Example 4, 3 mg/kg and 10 mg/kg oral
  analgesic effects: apparent analgesic effects
[1]; Example 4, 3.0 mg/kg oral
  Nociceptive threshold before administration: 92.0 ± 13.3 g
  Nociceptive threshold after administration: 174.6 ± 15.4 g
[1]; Example 4, 10.0 mg/kg oral
  Nociceptive threshold before administration: 89.0 ± 10.2 g
  Nociceptive threshold after administration: 253.4 ± 28.3 g
[1]; Example 4, 0.3, 1, 3 and 10 mg/kg oral
  nociceptive thresholds after administration, dose dependence: increased dose-dependently
[2]; Example 5, FIG. 2, 0.3, 1, 3 and 10 mg/kg oral, 14-day repeated
  nociceptive thresholds after administration, dose dependence: clearly increased dose-dependently beginning at dosage of 0.3 mg/kg
[2]; Example 5, FIG. 2, oral, 14-day repeated
  nociceptive threshold compared with Normal group: improved the nociceptive threshold to the same level as in Normal group
[2]; Example 5, oral, 14-day repeated versus single
  effect of repeated administration compared with single administration: stronger effect increasing the nociceptive threshold than single administration
[4]
  nociceptive threshold of Nerve ligation group in comparison with that before administration: improved significantly
[5]
  nociceptive threshold of the right hind-paw in comparison with that of Control group: improved significantly

## CC(C)(C)NCC(O)c1cc(O)cc(O)c1 (centres unmarked) [Terbutaline, terbutaline]
[1]; [11]
  Nociceptive threshold before administration: 122.6 ± 14.5 g
  Nociceptive threshold after administration: 146.8 ± 20.7 g
[1]; [12]
  Nociceptive threshold before administration: 134.2 ± 6.3 g
  Nociceptive threshold after administration: 152.8 ± 12.7 g
[2]; [13]
  Nociceptive threshold before administration: 228.2 ± 11.1 g
  Nociceptive threshold after administration: 229.0 ± 14.8 g
[2]
  nociceptive threshold following repeated administration for 14 days: increased significantly
  nociceptive threshold after 14-day repeated, sole administration: in neither L groups or M groups of either test articles, the nociceptive threshold increased
[2]; [14]
  Nociceptive threshold before administration: 113.8 ± 11.9 g
  Nociceptive threshold after administration: 115.2 ± 12.6 g
[2]; [15]
  Nociceptive threshold before administration: 155.4 ± 32.0 g
  Nociceptive threshold after administration: 167.8 ± 32.3 g
